Reference: the supplement of paper PMC10307832

How the values were obtained:
Assay in all cases: relative viability (nuclei count vs DMSO), 5 days (fraction); higher = more cells survive
Cediranib + Tozasertib = compound: COc1cc2c(Oc3ccc4[nH]c(C)cc4c3F)ncnc2cc1OCCCN1CCCC1 [Cediranib] + Cc1cc(Nc2cc(N3CCN(C)CC3)nc(Sc3ccc(NC(=O)C4CC4)cc3)n2)n[nH]1 [Tozasertib] (partner 0.1 µM)
Procedure, shortened: (§1)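 For relative viability, nuclei counts in treated wells were divided by those in vehicle wells. Lung cancer cell lines had been pin-tool dosed in 1536-well plates the day after seeding and cultured for 5 days, then fixed and stained in one step (final 0.05% Triton X-100, 1% formaldehyde, 1 ug/ml Hoechst) and imaged at 4×. Doses were one drug alone or a fixed anchor-drug dose plus five library-drug doses (not always all listed) in √10 steps, and values are duplicate-plate medians.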

Decitabine + Bortezomib = compound: Nc1ncn([C@H]2C[C@H](O)[C@@H](CO)O2)c(=O)n1 [Decitabine] + CC(C)C[C@H](NC(=O)[C@H](Cc1ccccc1)NC(=O)c1cnccn1)B(O)O [Bortezomib] (partner 0.002 µM)
Procedure, shortened: as §1

Decitabine + Crizotinib = compound: Nc1ncn([C@H]2C[C@H](O)[C@@H](CO)O2)c(=O)n1 [Decitabine] + C[C@@H](Oc1cc(-c2cnn(C3CCNCC3)c2)cnc1N)c1c(Cl)ccc(F)c1Cl [Crizotinib] (partner 1 µM)
Procedure, shortened: as §1

[1] = compound: O=C(C[C@H]1NCCC[C@@H]1O)Cn1cnc2cc(Br)c(Cl)cc2c1=O (racemic) [Halofuginone] + O=C(CCCCCCC(=O)Nc1ccccc1)NO [Vorinostat] (partner 1 µM)
Procedure, shortened: as §1

| Cell Line | relative viability (Cediranib + Tozasertib; first compound 0.04 µM) | relative viability (Cediranib + Tozasertib; first compound 0.1265 µM) | relative viability (Cediranib + Tozasertib; first compound 0.4 µM) | relative viability (Cediranib + Tozasertib; first compound 1.265 µM) | relative viability (Cediranib + Tozasertib; first compound 4 µM) | relative viability (Decitabine + Bortezomib; first compound 0.04 µM) | relative viability (Decitabine + Bortezomib; first compound 0.1265 µM) | relative viability (Decitabine + Bortezomib; first compound 0.4 µM) | relative viability (Decitabine + Bortezomib; first compound 1.265 µM) | relative viability (Decitabine + Bortezomib; first compound 4 µM) | relative viability (Decitabine + Crizotinib; first compound 0.04 µM) | relative viability (Decitabine + Crizotinib; first compound 0.1265 µM) | relative viability (Decitabine + Crizotinib; first compound 0.4 µM) | relative viability (Decitabine + Crizotinib; first compound 1.265 µM) | relative viability (Decitabine + Crizotinib; first compound 4 µM) | relative viability ([1]; first compound 0.001 µM) | relative viability ([1]; first compound 0.003162 µM) | relative viability ([1]; first compound 0.01 µM) | relative viability ([1]; first compound 0.03162 µM) | relative viability ([1]; first compound 0.1 µM) |
| --- | --- | --- | --- | --- | --- | --- | --- | --- | --- | --- | --- | --- | --- | --- | --- | --- | --- | --- | --- | --- |
| HCC-78 | 0.448 | 0.474 | 0.512 | 0.54 | 0.441 | 0.52 | 0.517 | 0.435 | 0.385 | 0.328 | 0.354 | 0.382 | 0.395 | 0.272 | 0.255 | 0.675 | 0.459 | 0.391 | 0.426 | 0.367 |
| HCC-366 | 0.114 | 0.0898 | 0.125 | 0.136 | 0.147 | 0.971 | 0.788 | 0.421 | 0.197 | 0.121 | 0.237 | 0.362 | 0.121 | 0.102 | 0.0419 | 0.446 | 0.347 | 0.319 | 0.233 | 0.0907 |
| HCC-827 | 0.529 |  | 0.407 | 0.414 | 0.351 | 0.748 | 0.567 | 0.399 | 0.36 | 0.372 |  | 0.396 | 0.355 | 0.262 | 0.272 | 0.764 | 0.777 | 0.795 | 0.869 | 0.87 |
| HOP-62 | 0.366 | 0.457 | 0.388 | 0.379 | 0.352 | 0.418 | 0.23 | 0.23 | 0.0953 | 0.0952 | 0.421 | 0.318 | 0.149 | 0.117 | 0.133 | 0.675 | 0.597 | 0.603 | 0.566 | 0.279 |
| IA-LM |  |  |  |  |  | 0.44 | 0.54 | 0.257 | 0.172 | 0.185 | 0.342 | 0.274 | 0.2 | 0.191 | 0.102 | 1.02 | 0.995 | 0.902 | 0.92 | 0.878 |
| LC-2-ad | 0.496 | 0.373 | 0.456 | 0.507 | 0.371 | 0.799 | 0.779 | 0.459 | 0.304 | 0.329 | 0.391 | 0.371 | 0.34 | 0.262 | 0.283 | 0.695 | 0.706 | 0.69 | 0.696 | 0.686 |
| LCLC-97TM1 | 0.217 | 0.224 | 0.191 | 0.227 | 0.229 | 0.202 | 0.268 | 0.123 | 0.124 | 0.11 | 0.155 | 0.16 | 0.18 | 0.15 | 0.101 | 0.757 | 0.602 | 0.726 | 0.622 | 0.419 |
| LCLC-103H | 0.501 | 0.505 | 0.467 | 0.469 | 0.5 | 0.985 | 1.04 | 0.966 | 0.9 | 0.749 | 1.01 | 1.02 | 0.78 | 0.82 | 0.79 | 0.865 | 0.807 | 0.803 | 0.723 | 0.719 |
| LK-2 | 0.195 | 0.156 | 0.175 | 0.194 | 0.162 |  |  |  |  |  |  | 0.219 | 0.262 | 0.265 | 0.219 | 0.331 | 0.292 | 0.292 | 0.353 | 0.254 |
| NCI-H358 | 0.123 | 0.0968 | 0.0956 | 0.105 | 0.101 |  |  |  |  |  | 0.385 | 0.39 | 0.246 | 0.192 | 0.161 | 0.79 | 0.702 | 0.634 | 0.233 | 0.109 |
| NCI-H522 | 0.687 | 0.465 | 0.541 | 0.535 | 0.51 |  |  |  |  |  |  |  |  |  |  | 0.833 | 0.829 | 0.926 | 0.951 | 0.976 |
| NCI-H1299 |  |  |  |  |  | 1.01 | 0.988 | 0.965 | 0.867 | 0.865 | 0.979 | 0.991 | 0.956 | 0.85 | 0.856 |  |  |  |  |  |
| NCI-H1395 | 0.739 | 0.773 | 0.666 | 0.74 | 0.791 |  |  |  |  |  |  |  |  |  |  | 0.741 | 0.682 | 0.656 | 0.603 | 0.49 |
| NCI-H1563 |  |  |  |  |  | 0.801 | 1.02 | 1.16 | 0.987 | 0.908 | 0.947 | 0.861 | 0.908 | 0.905 | 0.799 |  |  |  |  |  |
| NCI-H1623 | 0.453 |  | 0.427 | 0.469 | 0.43 |  |  |  |  |  |  |  |  |  |  |  |  |  |  |  |
| NCI-H1648 | 0.55 |  | 0.449 | 0.502 | 0.442 |  |  |  |  |  |  |  |  |  |  | 0.624 | 0.488 | 0.522 | 0.415 | 0.61 |
| NCI-H1703 |  |  |  |  |  | 0.243 | 0.258 | 0.2 | 0.182 | 0.176 | 0.397 | 0.419 | 0.214 | 0.263 | 0.134 |  |  |  |  |  |
| NCI-H1792 |  |  |  |  |  | 0.927 | 0.99 | 0.923 | 0.444 | 0.521 | 0.97 | 1.01 | 0.948 | 0.501 | 0.553 |  |  |  |  |  |
| NCI-H1793 | 0.414 | 0.419 | 0.347 |  | 0.329 |  |  |  |  |  |  |  |  |  |  | 0.898 | 0.672 | 0.664 | 0.846 | 0.497 |
| NCI-H1944 | 0.255 | 0.264 | 0.244 | 0.24 | 0.266 |  |  |  |  |  | 0.787 | 0.859 | 0.627 | 0.45 | 0.387 | 0.565 | 0.536 | 0.519 | 0.477 | 0.513 |
| NCI-H2170 | 0.846 | 0.659 | 0.735 | 0.677 | 0.787 |  |  |  |  |  | 0.942 | 0.875 | 0.79 | 0.463 | 0.395 | 0.853 | 0.831 | 0.799 | 0.825 | 0.802 |
| NCI-H2342 | 0.54 | 0.575 | 0.568 | 0.536 | 0.484 |  |  |  |  |  |  |  |  |  |  | 0.649 | 0.743 | 0.725 | 0.715 | 0.737 |
| SK-MES-1 | 0.903 | 0.917 | 0.908 | 0.924 | 0.898 |  |  |  |  |  | 0.866 | 0.703 | 0.329 | 0.333 | 0.289 | 1.16 | 1.09 | 0.997 | 0.949 | 0.183 |
| SW 900 | 0.605 | 0.507 | 0.584 | 0.48 | 0.571 |  |  |  |  |  |  |  |  |  |  | 0.729 | 0.379 |  | 0.535 | 0.317 |
